The values below come from patent publication US6291676A, “Water-soluble derivatives of camptothecin/homocamptothecin” (priority 2000, dated 2001).

Series [1] deals with topoisomerase I. Description: Topoisomerase I mediated DNA cleavage (cleavable complex induction). It counts as biochemical. The source says:
Evaluation of the Relative Abilities of the Novel Polyamine Camptothecin Analogs to Induce Topoisomerase I Mediated DNA Single Strand Breaks. We have evaluated the abilities of the novel compounds of the present invention to inhibit the topoisomerase I enzyme. In these experiments the oligonucleotide was labeled at the 3'-end of the upper (scissile) strand with 32P-α-cordycepin and terminal transferase (Pommier, Y., Kohlhagen, G., Kohn, F., Leteurtre, F., Wani, M. C., and Wall, M. E. Proc. Natl. Acad. Sci. U.S.A. 92:8861-8865, 1995). Topoisomerase I (Top1) cleavage generates a 23mer that can be easily detected by electrophoresis and quantitated by Phosphorimager analysis. Tanizawa et al. (Tanizawa, A., Kohn, K. W., Kohlhagen, G., Leteurtre, F., and Pommier, Y. Biochemistry […]:7200-7206, 1995) have previously shown that camptothecin derivatives differ in the manner in which they stabilize the top1 cleavable complexes that they induce. The novel polyamine camptothecins of the present invention were compared in this assay. 0.35M NaCl was added to force top 1-mediated DNA religation and DNA cleavage was measured at various times after NaCl addition. FIG. 9 is a typical phosphoimager picture showing the timecourse of the effects of various camptothecins on the relaxation of DNA in the presence of topoisomerase I. Topoisomerase I-mediated cleavage generates DNA fragments that can be readily detected by electrophoresis and quantitated by phosphorimager analysis.
FIG. 10 is a phosphoimager picture showing the dose response of various camptothecin compounds described in the present invention on the relaxation of DNA in the presence of topoisomerase I. Topoisomerase I-mediated cleavage generates DNA fragments that can be readily detected by electrophoresis and quantitated by phosphorimager analysis as shown.
FIG. 11 contains a phosphoimager picture (bottom figure) showing the dose response effects of several of the novel polyamine camptothecins of the current invention on the relaxation of DNA in the presence of topoisomerase I. Topoisomerase I-mediated cleavage generates DNA fragments that can be readily detected by electrophoresis and quantitated by phosphorimager analysis (top figure).

Series [2] can be described thus: HPLC lactone stability in presence of DMPC SUV. It counts as physicochemical. As to conditions: for less lactone compared to the prior art monoamine (7AEC): DMPC. The method, then: (§1) To further study the differential interactions of CT-17 versus 7AEC with liposomal particles, high performance liquid chromatographic (HPLC) methods were employed to study drug stabilities in the absence and presence of membranes. In these experiments, small unilamellar vesicles (SUV) composed of dimyristoyl phosphatidylcholine (DMPC) were prepared by weighing out dry lipid powder (Avanti Polar Lipids) in a glass tube with screw cap top. The lipid was suspended in phosphate buffered saline, pH 7.4, at the concentration of 20 mg/ml and vortexed vigorously for 1 minute. The suspension was sonicated in a bath-type sonicator (Laboratory Supplies Co., Hicksville, N.Y.) for 2-4 hours until optically clear solution is obtained. […] A decrease in pH from 7.4 to 7.2 was observed. The pH of the SUV preparation was adjusted to 7.4 by the addition of 0.1 M potassium hydroxide. The sample was resonicated after pH adjustment until optically clear. Small unilamellar vesicles composed of dimyristoyl phosphatidylglycerol (DMPG) were also prepared by weighing out dry powder of the lipid (Avanti Polar Lipids) in a glass tube with screw-cap top and prepared as in the case of DMPC. The pH of the preparation decreased from 7.4 to 6.9 and was adjusted to 7.4 by the addition of 0.1 M KOH. The preparation was resonicated for 30 minutes until optically clear.
(§2) Stock solutions of 7-(1-Aminoethyl)camptothecin, a monoamine compound known in the prior art, and CT-17 as prepared in Example 18 were prepared by weighing out dry powder and dissolving in dimethylsulfoxide (DMSO) at a concentration of 2 mM. The SUV preparations from above were incubated at 37° C. in a water bath for 30 minutes. The two camptothecin drugs were added to the SUV preparations such that the final drug concentrations were 1 μM. The samples were incubated at 37° C. and aliquots were withdrawn at 1 hour and 3 hours and added to cold methanol (-20° C.) and immediately analyzed by reversed-phase HPLC using the conditions as follows. Analysis was performed using either Waters Alliance 2690 LC system equipped with temperature controlled autosampler or Waters LC system equipped with temperature controlled 717 plus Autosampler and 501 pumps. The detection was using either Waters 470 or 474 fluorescence detectors. Solvent A was 2% triethylammonium acetate, pH 5.5 and Solvent B was acetonitrile. The column used was Waters Symmetry C18, 5 μm (3.9×150 mm). The autosampler temperature was maintained at 4-5° C. The conditions used for analysis of 7-(1-Aminoethyl)camptothecin: Isocratic elution using 15% of solvent A and 85% of solvent B; detection using λcx =370 and λcm =440. […] The HPLC data was collected and analyzed using Waters Millenium chromatography manager.

Series [3] is described as follows: HPLC lactone stability in presence of DMPG SUV. To be noted: for less lactone compared to the prior art monoamine (7AEC): DMPG. It counts as physicochemical. The procedure:
as §1, §2

For `CC[C@@]1(O)C(=O)OCc2c1cc1n(c2=O)Cc2c-1nc1ccccc1c2CNN1CCN(C)CC1` [CT-17, 7-[N-(4-methyl-1-piperazino)aminomethyl]-(20S)-camptothecin], the “potency at promoting DNA cleavage relative to camptothecin and SN-38” value in series [1] (FIG. 11 quantitation) is “somewhat less potent”. Also, the “distribution of cleavage sites vs camptothecin or SN-38” value in series [1] (topoisomerase I) is recorded as “comparable to those generated by camptothecin or 7-ethyl-10-hydroxycamptothecin (SN-38)”. Moreover, in series [1] (topoisomerase I, 3'-32P-labeled oligonucleotide), the “induction of cleavable complex formation” value is listed as “capable of inducing cleavable complex formation”. In addition, the remaining at 1 h, 1 µM in series [2] (DMPC SUV, PBS pH 7.4, 37° C, 1 hr, 1 μM drug, read-out: Percentage of Lactone, DMPC, 1 Hr) was determined as 34 ± 3%; in series [3] (DMPG SUV, PBS pH 7.4, 37° C, 1 hr, 1 μM drug, read-out: Percentage of Lactone, DMPG, 1 Hr) it was 87 ± 2%. Further, the remaining at 3 h, 1 µM in series [2] (DMPC SUV, PBS pH 7.4, 37° C, 3 hr, 1 μM drug, read-out: Percentage of Lactone, DMPC, 3 Hr) is 19 ± 3%; in series [3] (DMPG SUV, PBS pH 7.4, 37° C, 3 hr, 1 μM drug, read-out: Percentage of Lactone, DMPG, 3 Hr) it was 78 ± 3%. Also, the “less lactone compared to the prior art monoamine (7AEC)” value amounted to 20% in series [2] (1 hr), 17% in series [2] (3 hr), 6% in series [3] (1 hr) and 8% in series [3] (3 hr).
